This is an account of results in publication PMC11633381 (mBio, 2024).

The target in assay [1] is T1, BoSusA (BoGH13BSus) (Bacteroides ovatus, UniProt A0ABU3INP3).
T1 construct: gene RO706_06385; cloned starting with A90 (A23 in SusA numbering)
The assay is described as follows: inhibition kinetics with pNP-G6 (αKi); also ITC binding to free enzyme. In kind it is biochemical. To be noted: read-out: Inhibition constant.

The target in assay [2] is T2, SusA (Bacteroides thetaiotaomicron, UniProt Q8A1G0, D331N).
T2 construct: cloned starting with T23
The assay is described as follows: isothermal titration calorimetry. In kind it is binding. (In general: ITC needs no label: the signal is the heat of the interaction.)

The target in a further assay is T3, BoGH97D (Bacteroides ovatus, UniProt A0ABU3IP51).
T3 construct: gene RO706_07160; N-terminal 6x His tag, recombinant
Description: competitive inhibition kinetics with pNP-Glc. It counts as biochemical.

In assay [3] the target is T4, SusA (Bacteroides thetaiotaomicron, UniProt Q8A1G0).
T4 construct: cloned starting with T23
Description: inhibition kinetics with pNP-G6 (αKi); also ITC binding to free enzyme. In kind it is biochemical.

For the next assay, the target named is T5, BoSusB (BoGH97CSus) (Bacteroides ovatus, UniProt A0AAN3A6N4).
T5 construct: gene BACOVA_03519; N-terminal 6x His tag, recombinant
The assay is described as follows: co-crystal structure; competitive inhibition kinetics with pNP-Glc. In kind it is biochemical.

The next assay addresses T6, BoSusG (BoGH13ASus) (Bacteroides ovatus, UniProt A0ABU3ISA0).
T6 construct: gene RO706_06355
Description: EnzChek fluorescent starch amylase assay. It counts as biochemical.

The target in assay [4] is T7, BoSusA (BoGH13BSus) (Bacteroides ovatus, UniProt A0ABU3INP3, D331N).
T7 construct: gene RO706_06385; cloned starting with A90 (A23 in SusA numbering)
Description: isothermal titration calorimetry. In kind it is binding.

In the next assay the target is T8, BtGH97H (Bacteroides thetaiotaomicron, UniProt Q89YZ9).
T8 construct: gene BT_4581; N-terminal 6x His tag, recombinant
Description: competitive inhibition kinetics with pNP-Glc. It counts as biochemical.

Regarding `C[C@H]1O[C@H](O[C@H]2[C@H](O)[C@@H](O)[C@@H](O[C@H]3[C@H](O)[C@@H](O)C(O)O[C@@H]3CO)O[C@@H]2CO)[C@H](O)[C@@H](O)[C@@H]1N[C@H]1C=C(CO)[C@@H](O)[C@H](O)[C@H]1O` (some centres unmarked) [acarbose], the Ki on BoSusA (BoGH13BSus) [1] amounted to 0.123 ± 0.0092 µM; at BoGH97D, 0.134 ± 0.0224 µM; on SusA [3], 0.0947 ± 0.0069 µM; at BoSusB (BoGH97CSus), 0.0693 ± 0.0089 µM; at BtGH97H, 0.162 ± 0.0243 µM. Also, the isothermal titration calorimetry result on SusA [2] is given as “Wild-type enzyme has two acarbose-binding sites, whereas a catalytically inert variant of each enzyme (D331N) has one”; on BoSusA (BoGH13BSus) [4], “Wild-type enzyme has two acarbose-binding sites, whereas a catalytically inert variant of each enzyme (D331N) has one”. Moreover, at BoSusG (BoGH13ASus), the IC50 (usually the point on the concentration scale where inhibition reaches its midpoint) was determined as 2.2 ± 0.35 µM.
